Patent publication US9504692B2, “Selective inhibition of MALT1 protease by phenothiazine derivatives” (HELMHOLTZ ZENTRUM MUNCHEN, DEUTSCHES FORSCHUNGSZENTRUM FUR …, priority 2011, dated 2016)
Entries after “also recorded” stand apart in the source; their conditions may differ. Read-outs that look alike come from different tables or passages of the source. Values belong to the compound of their own block, whether it stands above or below them. *1 amine or outer side, *2 acyl side, *3 side chain or, on linkers, in order; H or OH if unused. Where a SMILES comes first, the peptide text is derived from it. [ ]: non-standard residue; d: D form. The star is where a group is joined. Sta = CC(C)C[C@H](N)[C@@H](O)CC(=O)O; Isovaleryl = CC(C)CC(=O)*; CO = O=C([*:1])[*:2]

What was measured:
[1] = target: recombinant full length (FL) GSTMALT1 (Homo sapiens (Human), UniProt Q9UDY8); assay: Recombinant GSTMALT1 cleavage assay with Ac-LRSR-AMC; assay type: biochemical
recombinant full length (FL) GSTMALT1, sequence (Q9UDY8 other isoform, or with tags, fused parts or gaps): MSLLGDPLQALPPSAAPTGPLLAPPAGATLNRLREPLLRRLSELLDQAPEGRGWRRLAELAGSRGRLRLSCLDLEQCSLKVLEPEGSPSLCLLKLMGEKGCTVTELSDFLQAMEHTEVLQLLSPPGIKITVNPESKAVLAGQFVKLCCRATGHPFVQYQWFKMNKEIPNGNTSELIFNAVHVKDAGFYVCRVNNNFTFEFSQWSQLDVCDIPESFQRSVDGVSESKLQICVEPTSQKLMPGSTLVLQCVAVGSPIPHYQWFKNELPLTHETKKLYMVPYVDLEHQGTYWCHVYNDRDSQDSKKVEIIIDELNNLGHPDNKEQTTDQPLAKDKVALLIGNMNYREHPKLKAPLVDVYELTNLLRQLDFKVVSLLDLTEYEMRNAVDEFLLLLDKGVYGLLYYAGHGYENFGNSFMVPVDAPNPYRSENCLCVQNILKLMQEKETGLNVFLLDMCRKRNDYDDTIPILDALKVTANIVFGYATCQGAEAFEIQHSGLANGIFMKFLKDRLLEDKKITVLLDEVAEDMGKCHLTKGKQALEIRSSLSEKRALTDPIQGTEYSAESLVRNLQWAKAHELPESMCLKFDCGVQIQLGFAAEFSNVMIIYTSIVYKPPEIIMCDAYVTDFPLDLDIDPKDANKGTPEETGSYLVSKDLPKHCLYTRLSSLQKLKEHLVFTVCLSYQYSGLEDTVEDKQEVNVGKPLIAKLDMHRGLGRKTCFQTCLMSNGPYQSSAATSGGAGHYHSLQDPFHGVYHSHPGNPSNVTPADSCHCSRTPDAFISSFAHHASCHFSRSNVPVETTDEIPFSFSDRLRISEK
Protocol: The MALT1 cleavage assay was used to screen ˜18000 small molecules of the ChemBioNet library at the Leibniz Institute for Molecular Pharmacology (FMP) in Berlin.^35 Screening volume was 11 μl in a 384-well non-binding assay plate (Corning) with […] GSTMALT1 against 10 μM final concentration of compounds. The assay was performed with 50 μM of Ac-LRSR-AMC substrate for 20 min at 30° C. As a negative control the recombinant MALT1 mutant C453A was used, as a medium inhibition control 1 nM of the Z-VRPR-FMK peptide.
To screen for small molecular weight compounds that can inhibit MALT1 protease activity, recombinant GSTMALT1 was purified from E. coli to establish an in vitro protease cleavage assay suitable for high throughput screening (HTS). GSTMALT1 was incubated for 1 h at 30° C. in the presence of 50 μM of the tetrapeptide substrate Ac-LRSR-AMC, which is derived from the MALT1 cleavage site in the C-terminus of BCL10.^7 Proteolytic activity was determined by measuring the increase of fluorescence, which is emitted after cleavage and the accompanying release of the fluorophore AMC (FIGS. 1A and B). […] Similar to arginine-lysine specific metacaspases, the MALT1 protease has a high preference for cleaving after an arginine residue.

AtMC9 = AtMC9 (Arabidopsis thaliana (Mouse-ear cress), UniProt Q9FYE1); conditions: cited from earlier work
AtMC9, sequence (Q9FYE1 whole entry): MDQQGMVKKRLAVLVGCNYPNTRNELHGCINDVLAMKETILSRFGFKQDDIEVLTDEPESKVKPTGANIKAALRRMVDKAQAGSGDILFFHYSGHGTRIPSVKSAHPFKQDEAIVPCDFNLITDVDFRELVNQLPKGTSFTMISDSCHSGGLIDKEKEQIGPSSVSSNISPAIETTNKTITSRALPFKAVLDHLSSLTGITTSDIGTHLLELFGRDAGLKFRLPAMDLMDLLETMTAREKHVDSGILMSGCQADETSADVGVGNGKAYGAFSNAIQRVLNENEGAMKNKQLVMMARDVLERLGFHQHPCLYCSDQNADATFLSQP

AtMC4 = AtMC4 (Arabidopsis thaliana (Mouse-ear cress), UniProt O64517); conditions: cited from earlier work
AtMC4, sequence (O64517 whole entry): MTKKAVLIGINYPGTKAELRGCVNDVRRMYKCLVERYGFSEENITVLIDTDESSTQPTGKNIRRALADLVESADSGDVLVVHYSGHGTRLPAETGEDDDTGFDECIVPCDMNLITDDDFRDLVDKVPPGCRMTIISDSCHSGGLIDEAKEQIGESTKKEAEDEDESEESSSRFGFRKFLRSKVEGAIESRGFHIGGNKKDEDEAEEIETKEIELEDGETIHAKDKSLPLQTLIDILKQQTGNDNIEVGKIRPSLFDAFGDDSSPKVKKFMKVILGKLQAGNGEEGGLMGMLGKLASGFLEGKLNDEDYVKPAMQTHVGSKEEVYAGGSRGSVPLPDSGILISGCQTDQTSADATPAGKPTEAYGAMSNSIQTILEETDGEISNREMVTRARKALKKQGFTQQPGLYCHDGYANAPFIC

[2] = test system: primary murine CD4+ T-cells; assay: IL-2 mRNA (qPCR) and protein (ELISA) in primary murine CD4+ T cells; assay type: cell-based, mouse; conditions: 5 and 10 μM
[3] = test system: GCB-DLBCL cell lines BJAB, Su-DHL-6 and Su-DHL-4; assay: MTT cytotoxicity test, GCB-DLBCL cells; assay type: cell-based; conditions: two days, single treatment, increasing concentrations
Protocol: (§1) Viability of DLBCL cell lines was analysed with a cell count assay of trypan blue stained cells after four days and by MTT (3-4,5-Dimethylthiazol-2-yl-2,5-diphenyltetrazoliumbromid) cytotoxicity test after two days of dose-dependent inhibitor treatment in comparison to DMSO treated control cells. The cell-dependent reduction of MTT to formazan was measured at λ=450 nm with a μQuant microplate spectrophotometer (Biotek). Apoptosis rates were determined with PE-Annexin V staining of 7AAD^− cells (BD Pharmingen) by FACS analysis (LSRII, BD) after five days of compound treatment. Data was analyzed using FlowJo software (Treestar).
(§2) Further, cell viability was determined by cell counting after 4 days of treatment (FIG. 7B, D and FIG. 12C).

GCB-DLBCL cells [4] = assay: Apoptosis by AnnexinV-PE/7-AAD FACS, GCB-DLBCL cells; assay type: cell-based; conditions: 15 μM, five days
Protocol: as §1

primary human PBMCs = assay: IL-2 secretion of primary human PBMCs (ELISA); assay type: cell-based; conditions: 5 and 10 μM for 3 h; anti-CD3/CD28 20 h
NF-κB = NF-κB DNA binding (EMSA) and NF-κB target proteins in ABC-DLBCL cells; assay type: cell-based; conditions: 10 and 20 μM
ABC-DLBCL cells [5] = assay: Apoptosis by AnnexinV-PE/7-AAD FACS, ABC-DLBCL cells; assay type: cell-based; conditions: 15 μM, five days
Protocol: as §1

Jurkat T cells = assay: IL-2 secretion of Jurkat T cells (ELISA); assay type: cell-based, human; conditions: 5 and 10 μM; P/I or anti-CD3/CD28 for 20 h
[6] = test system: ABC-DLBCL cells HBL1, OCI-Ly3, U2932 and TMD8; assay: MTT cytotoxicity test, ABC-DLBCL cells; assay type: cell-based; conditions: two days, single treatment, increasing concentrations
Protocol: as §1, §2

[7] = test system: GCB-DLBCL cell line Su-DHL-6; assay: Murine DLBCL xenogeneic tumor model, GCB-DLBCL Su-DHL-6; assay type: in vivo, NSG mice
Protocol: (§3) (A) Transplantation of OCI-Ly10 or Su-DHL-6 cells resuspended in matrigel (BD) into the flanks of NOD.Cg-Prkdc^scid ll2rg^tm1Wjl/SzJ (NSG) mice was carried out on day 0. Tumor size was determined by caliper measurement. […] Apoptosis was determined on tumor sections by TUNEL staining after 22 days of treatment. Pictures show staining of representative tumor sections. […] Expression of RelB and the MALT1-dependent cleavage product RelBΔ were detected in extracts of OCI-Ly10 tumor specimens by Western Blotting after 22 days.
(§4) For this purpose, the ABC-DLBCL cell line OCI-Ly10 and the GCB-DLBCL cell line Su-DHL-6 were injected as subcutaneous xenografts into NOD/scid IL-2Rg^null (NSG) mice (FIG. 8A). Both tumor cell lines were engrafted simultaneously on opposite flanks of individual mice.
(§5) Transplanted tumors were removed at the end of the treatment period and apoptotic cells were visualized by TUNEL staining on sections of the tumor tissue (FIG. 8B).

[8] = test system: ABC-DLBCL cell line OCI-Ly10; assay: Murine DLBCL xenogeneic tumor model, ABC-DLBCL OCI-Ly10; assay type: in vivo, NSG mice
Protocol: as §3, §4, §5

ABC-DLBCL cells [9] = assay: IL-6 and IL-10 secretion of ABC-DLBCL cells (ELISA); conditions: 20 h; ABC cell lines
Protocol: Whole cell extracts, Western blotting and EMSA were performed as described previously.^9 Antibodies used were BCL-XL (Cell signaling), MALT1 (H300, B12), BCL10 (H197), c-FLIP (Alexis Biochemicals) and β-Actin (I-19). BCL10 cleavage was visualized after 20 h treatment of diffuse large B-cell lymphoma cells with different doses of PD.

ABC-DLBCL cells [10] = assay: Viability by cell counting, ABC-DLBCL cells; assay type: cell-based; conditions: 4 days of treatment
Protocol: as §1, §2

GCB-DLBCL cells [11] = assay: Viability by cell counting, GCB-DLBCL cells; assay type: cell-based; conditions: 4 days of treatment
Protocol: as §1, §2

human recombinant CASP8 = human recombinant CASP8 (Homo sapiens (Human), UniProt Q14790); assay: CASP8 cleavage assay with Ac-DEVD-AMC; assay type: biochemical; conditions: 50 pM; picomolar concentrations
human recombinant CASP8, sequence (Q14790 217-374): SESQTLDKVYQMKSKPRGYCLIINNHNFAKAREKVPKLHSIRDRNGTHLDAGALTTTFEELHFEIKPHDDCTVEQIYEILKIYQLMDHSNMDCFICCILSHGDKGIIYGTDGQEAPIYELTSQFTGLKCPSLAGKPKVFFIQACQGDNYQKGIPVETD
human recombinant CASP8, sequence (Q14790 385-479): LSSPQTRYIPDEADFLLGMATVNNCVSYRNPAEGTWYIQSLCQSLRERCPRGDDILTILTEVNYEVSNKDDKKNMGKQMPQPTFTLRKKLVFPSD
Protocol: After incubation of 16 h at 4° C.

[12] = daily i.p., mepazine 12 mg/kg or thioridazine 16 mg/kg, 22 days

Compound: CC(C)[C@H](NC(=O)[C@H](CCCNC(=N)N)NC(=O)N[C@@H](Cc1ccccc1)C(=O)O)C(=O)N[C@H](C=O)CCCNC(=N)N [Antipain] ({Phe-CO}-Arg-Val-Arg-aldehyde)
effect on MALT1 activity ([1]; 1 μM inhibitor): diminished; also recorded: inhibited | effect on AtMC9 (AtMC9; 1 μM inhibitor): inhibited | effect on AtMC4 (AtMC4; 1 μM inhibitor): inhibited

Compound: CC(C)C[C@H](NC(=O)[C@@H](NC(=O)N[C@@H](Cc1ccccc1)C(=O)O)[C@@H]1CCN=C(N)N1)C(=O)N[C@H](C=O)Cc1ccccc1 [Chymostatin]
effect on MALT1 activity ([1]; 100 μM inhibitor): diminished; also recorded: inhibited | effect on AtMC9 (AtMC9; 100 μM inhibitor): inhibited | effect on AtMC4 (AtMC4; 100 μM inhibitor): inhibited

Compound: CC(C)C[C@H](NC(=O)[C@H]1O[C@@H]1C(=O)O)C(=O)NCCCCN=C(N)N [E-64]
effect on MALT1 activity ([1]; 100 μM inhibitor): does not inhibit MALT1 | effect on AtMC9 (AtMC9; 100 μM inhibitor): not AtMC9 | effect on AtMC4 (AtMC4; 100 μM inhibitor): mild effect

Compound: CC(=O)N[C@@H](CC(C)C)C(=O)N[C@@H](CC(C)C)C(=O)N[C@H](C=O)CCCNC(=N)N [Leupeptin]
effect on AtMC9 (AtMC9; 1 μM inhibitor): acting stronger on plant metacaspases | effect on AtMC4 (AtMC4; 1 μM inhibitor): acting stronger on plant metacaspases

Compound: CC(C)CC(=O)N[C@H](C(=O)N[C@H](C(=O)N[C@@H](CC(C)C)[C@@H](O)CC(=O)N[C@@H](C)C(=O)N[C@@H](CC(C)C)[C@@H](O)CC(=O)O)C(C)C)C(C)C [Pepstatin A] (Isovaleryl-VV[Sta]A[Sta]-OH)
effect on MALT1 activity ([1]; 100 μM inhibitor): no effects

Compound: Cc1ccc(S(=O)(=O)NC(CCCCN)C(=O)CCl)cc1 (stereo not shown) [TLCK]
effect on MALT1 activity ([1]; 1 μM inhibitor): no effects; also recorded: only mildly affecting MALT1 activity | effect on AtMC9 (AtMC9; 1 μM inhibitor): strongly inhibits | effect on AtMC4 (AtMC4; 1 μM inhibitor): much weaker

Compound: CN1CCCC(CN2c3ccccc3Sc3ccccc32)C1 (stereo not shown) [mepazine, 10-[(1-methyl-3-piperidinyl)methyl]-10H-phenothiazine acetate]
IL-2 mRNA induction ([2]; 3 h pre-treatment, anti-CD3/CD28 4 h): reduced in a dose-dependent manner | IL-2 protein expression ([2]; anti-CD3/CD28 20 h): reduced in a dose-dependent manner | cell viability by MTT [3]: without significantly affecting GCB-DLBCL cells | apoptotic rate (GCB-DLBCL cells [4]): apoptosis was not increased | IL-2 secretion (primary human PBMCs): significant decrease of IL-2 secretion | BCL-XL and FLIP-L protein levels (NF-κB; 20 h): dose-dependent decrease | NF-κB target DNA binding (NF-κB; 20 hours): reduced NF-κB target DNA binding | apoptotic rate (ABC-DLBCL cells [5]): enhanced apoptotic rate | secreted IL-2 levels (Jurkat T cells): decrease of IL-2 levels | cell viability by MTT [6]: promoted a decrease of cell viability | apoptotic cells in tumor sections (TUNEL) ([7]; after 22 days of treatment): no induction of apoptosis | tumor growth of Su-DHL-6 xenograft [7, 12]: completely failed to exert any inhibitory effects | constitutive RelB cleavage in OCI-Ly10 tumor specimens ([8]; Western Blot after 22 days): impaired | apoptotic cells in tumor sections (TUNEL) ([8]; after 22 days of treatment): increased the number of apoptotic cells | tumor growth of OCI-Ly10 xenograft [8, 12]: strongly impaired the expansion | decrease of IL-6 and IL-10 secretion (ABC-DLBCL cells [9]): ~50%

Compound: c1ccc2c(c1)Nc1ccccc1S2 [phenothiazine]
inhibition of GSTMALT1 activity ([1]; 1, 5 and 20 μM): inhibiting MALT1 activity in a dose-dependent manner

Compound: CC(CN1c2ccccc2Sc2ccccc21)N(C)C (stereo not shown) [promethazine]
MALT1 inhibition ([1]; concentrations up to 20 μM): not inhibiting MALT1 protease activity; also recorded: did not cause any significant MALT1 inhibition | number of viable cells / viability (ABC-DLBCL cells [10]): did not significantly inhibit viability | number of viable cells / viability (GCB-DLBCL cells [11]): did not significantly inhibit viability

Compound: Ac-DEVD-CHO
effect on MALT1 activity ([1]; 200 μM inhibitor): not significantly active; also recorded: only marginally reduced MALT1 activity | CASP8 activity against Ac-DEVD-AMC (human recombinant CASP8): almost total decline of enzymatic activity; also recorded: effectively blocked CASP8 activity

Compound: Aprotinin
effect on MALT1 activity ([1]; 5 μg/ml inhibitor): no effects

decrease of MALT1 activity ([1]; 1 nM inhibitor, 50 μM Ac-LRSR-AMC, 1 h at 30° C.): ~50%
Compound: Z-VRPR-FMK
MALT1 cleavage activity with increasing amounts of inhibitor ([1]; increasing amounts, low nanomolar concentrations): total loss of MALT1 activity; also recorded: completely blocked MALT1 cleavage activity
